Experimental findings from paper PMC7157554, “Anti-Trypanosomal Proteasome Inhibitors Cure Hemolymphatic and Meningoencephalic Murine Infection Models of African Trypanosomiasis” (Tropical Medicine and Infectious Disease, 2020) are described below.

Read-outs that look alike come from different tables or passages of the source.

Data set [1] concerns HepG2 (human hepatocellular carcinoma) cells. Description: HepG2 cytotoxicity assay (CCK-8, 96 h). The class given is cell-based. The conditions noted are these: mean ± SEM. As for the experimental part:
The HepG2 (human hepatocellular carcinoma) cells were obtained from ATCC (American Type Culture Collection) and grown in RPMI media. Cytotoxicity assay was performed in 384-well format, and 25 µL, approximately 1.6 × 10^4 cells/mL, suspension was added to clear-bottom 384-well Griener plates and incubated in 5% CO2 incubator, at 37 °C for 24 h. Once the cells adhered, 125 nL of threefold serially diluted compounds in DMSO was added. Plates were incubated for 96 h, at 37 °C, in a 5% CO2 incubator. Plates were read for viability by adding 10 µL of CCK-8 reagent (APExBIO) into each well, followed by 3 h incubation and absorbance reading at […], using an Envision plate reader. […] Puromycin was used as a positive control. All experiments had two technical replicates and three biological replicates. Appropriate statistical tests were used for evaluating significance, and mean ± SEM is represented in the tables.

A further data set relates to T. b. rhodesiense. The experiment in a line: Growth inhibition of T. b. rhodesiense strains. Type of data set: cell-based. The conditions noted are these: Trypanosoma brucei, mean ± SD, read-out: T. b. rhodesiense EC50.
Another data set in a line: Rat brain tissue binding. Type of data set: in vitro ADME. The conditions noted are these: rat brain tissue homogenate. Here is the method:
Test compounds’ solubility was determined in a high-throughput thermodynamic solubility assay, as described previously. The PAMPA (parallel artificial membrane) assays were carried out, using a standard protocol. Plasma protein binding was determined by using mouse blood, whilst brain tissue binding was determined by using rat brain tissue homogenate. Intrinsic metabolic clearances were determined in mouse liver microsomes, using the compound depletion approach and LC–MS/MS quantification.

In data set [2] the test system is T. b. brucei strain Lister 427 (bloodstream form). Description: T. b. brucei growth inhibition assay (CellTiter-Glo, 48 h). The class given is cell-based, Trypanosoma brucei brucei. As for the experimental part:
The T. b. brucei strain Lister 427 (bloodstream form) parasites were continuously grown in complete HMI-9 medium supplemented with 10% Serum Plus and 10% heat-inactivated fetal bovine serum (FBS). All other parasite strains were cultured as described elsewhere.
For determination of 50% growth inhibition, all compounds were dissolved in DMSO, and 200 nL of threefold serially diluted compounds were added into solid-bottom 384-well white plates (Greiner Bio-One, Kremsmunster, Austria) by an Echo 555 acoustic liquid-handling system. Forty microliters of 10^4 cells/mL of T. b. brucei parasites was added into each well, and the plates were incubated in a 5% CO2 incubator at 37 °C for 48 h. Viability of parasites were determined by measuring intracellular ATP levels, using CellTiter-Glo (CTG) luminescent cell viability reagent (Promega, Madison, Wisconsin WI, USA). The EC50 values were determined by using GraphPad Prism software. Growth inhibition assays for all clinical isolates were carried out as described earlier. All experiments had two technical replicates and three biological replicates. Appropriate statistical tests were used for evaluating significance, and mean ± SEM is represented in the tables.

[3] abbreviates: RHODESIENSE / STIB900, strain STIB900.
Where [4] appears, read: RHODESIENSE / STIB900, strain STIB900 Mel^R (melarsoprol-resistant).
Setting [5] is: RHODESIENSE / STIB900, strain STIB900 Pent^R (pentamidine-resistant).

In general, EC50 refers to the concentration needed to bring the measured effect to its halfway point. As for `Cc1nc(C)c(C(=O)Nc2ccc(F)c(-c3nc4ncc(-c5ccccc5)cn4n3)c2)o1` [GNF3849], the “HepG2 CC50” value in data set [1] is listed as “cytotoxic”. Also, the EC50 with T. b. rhodesiense (setting [3]) is 1.4 ± 1 nM; in the data set with T. b. rhodesiense (setting [4]) it was 0.6 nM; with T. b. rhodesiense (setting [5]), 1.7 ± 1 nM. Moreover, in the data set “Rat brain tissue binding”, the “BTB (rat brain tissue binding)” value is on record as greater than 99%.
As to `Cc1nc(C)c(C(=O)Nc2ccc(F)c(-c3nc4ncc(-c5ccccn5)cn4n3)c2)o1` [GNF6702], the EC50 in data set [2] (Lister 427 bloodstream form, mean ± SEM, read-out: T. b. brucei EC50) is 70 ± 3 nM; in data set [2] (Trypanosoma brucei, read-out: T. b. brucei EC50, Lister 427 bloodstream form, 48 h, mean ± SEM) it was less than 70 nM; in the data set on T. b. rhodesiense (setting [3]), 1.6 ± 0.9 nM; in the data set on T. b. rhodesiense (setting [4]), 0.7 ± 0.2 nM; in the data set with T. b. rhodesiense (setting [5]) it was 1.2 ± 0.3 nM.
In the case of `Cc1nc(C)c(C(=O)Nc2ccc(F)c(-c3nc4ncc(C(C)(C)C)cn4n3)c2)o1` [NITD689], in the data set “Rat brain tissue binding”, the “BTB (rat brain tissue binding)” value stood at 96.5%.
